The target of the experiment is T1, pendrin (Homo sapiens, UniProt O43511).
T1 construct: gene SLC26A4; human wild-type pendrin expressed in human alveolar epithelial cells (hAEC)
T1 sequence (O43511 1-780): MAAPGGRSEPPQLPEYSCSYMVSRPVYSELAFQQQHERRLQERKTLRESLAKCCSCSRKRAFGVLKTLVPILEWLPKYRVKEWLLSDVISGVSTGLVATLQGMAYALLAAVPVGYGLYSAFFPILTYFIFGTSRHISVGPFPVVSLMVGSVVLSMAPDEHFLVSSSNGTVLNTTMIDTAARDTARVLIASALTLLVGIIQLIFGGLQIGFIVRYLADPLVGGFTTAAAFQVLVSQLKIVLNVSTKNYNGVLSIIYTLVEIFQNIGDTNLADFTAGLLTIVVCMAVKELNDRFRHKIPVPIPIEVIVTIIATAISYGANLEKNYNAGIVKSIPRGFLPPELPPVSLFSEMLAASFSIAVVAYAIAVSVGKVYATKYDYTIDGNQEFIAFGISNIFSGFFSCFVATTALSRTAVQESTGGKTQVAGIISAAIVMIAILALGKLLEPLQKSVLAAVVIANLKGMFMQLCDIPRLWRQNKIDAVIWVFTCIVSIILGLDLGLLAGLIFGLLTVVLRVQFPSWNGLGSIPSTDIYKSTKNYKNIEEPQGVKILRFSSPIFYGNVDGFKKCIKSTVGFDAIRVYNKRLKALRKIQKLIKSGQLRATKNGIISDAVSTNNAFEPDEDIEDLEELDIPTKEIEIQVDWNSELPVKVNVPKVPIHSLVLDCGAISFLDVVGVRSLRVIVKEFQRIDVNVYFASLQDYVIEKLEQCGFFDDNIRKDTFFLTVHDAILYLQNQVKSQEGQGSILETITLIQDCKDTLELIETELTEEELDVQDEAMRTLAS
Put plainly: Cl-/SCN- exchange activity assay in pendrin-transfected human alveolar epithelial cells, dose-response. Type of experiment: cell-based.

Broadly, the IC50 is the midpoint of a concentration-inhibition curve. The low end stands for greater potency, the high end for weaker potency. In turn, `CC(C)(C)c1ccc(C2=N/C(=C/c3cccs3)C(=O)O2)cc1` [YS-01] showed an IC50 of 4.7 ± 0.82 µM.

The values are drawn from publication PMC7481407, “Inhibition of Pendrin by a small molecule reduces Lipopolysaccharide-induced acute Lung Injury” (Theranostics, 2020).
